Consider 1 compound from ChEMBL document CHEMBL4823249, “Discovery of a Pyrimidinedione Derivative as a Potent and Orally Bioavailable Axl Inhibitor” (J Med Chem, 2021).

Active and inactive are the calls of the source. No cut-off for these calls is given here. Bounds are passed on as bounds.

The subject of series [1] is MM1.S. The series is described as follows: Antiproliferative activity against human MM1.S cells incubated for 72 hrs by SRB or CCK8 assay. It is filed as functional, cell-based.
Series [2] addresses T1, Hepatocyte growth factor receptor (Homo sapiens, UniProt P08581). The series is described as follows: Inhibition of MET signaling in human MKN45 cells assessed as reduction in phosphorylation of AKT after 2 hrs by Western blotting analysis. Particulars: MKN-45, dose 10-100 nM. Type of series: cell-based.
The target in series [3] is Mitogen-activated protein kinase kinase kinase kinase 2 (Homo sapiens, UniProt Q12851). The series is described as follows: Inhibition of recombinant human GCK (1 to 473 residues) using myelin basic protein as substrate incubated for 40 mins in presence of [gamma-33ATP] by scintillation counting based radiometry assay.
In series [4] the target is Tyrosine-protein kinase JAK3 (Homo sapiens, UniProt P52333). The series is described as follows: Inhibition of recombinant human JAK3 (781 to end residues) using GGEEEEYFELVKKKK as substrate measured after 40 mins in presence of [gamm33P]ATP by scintillation counting method.
The target in series [5] is T2, Tyrosine-protein kinase receptor UFO (Mus musculus) (UniProt Q00993).
T2 sequence (whole entry): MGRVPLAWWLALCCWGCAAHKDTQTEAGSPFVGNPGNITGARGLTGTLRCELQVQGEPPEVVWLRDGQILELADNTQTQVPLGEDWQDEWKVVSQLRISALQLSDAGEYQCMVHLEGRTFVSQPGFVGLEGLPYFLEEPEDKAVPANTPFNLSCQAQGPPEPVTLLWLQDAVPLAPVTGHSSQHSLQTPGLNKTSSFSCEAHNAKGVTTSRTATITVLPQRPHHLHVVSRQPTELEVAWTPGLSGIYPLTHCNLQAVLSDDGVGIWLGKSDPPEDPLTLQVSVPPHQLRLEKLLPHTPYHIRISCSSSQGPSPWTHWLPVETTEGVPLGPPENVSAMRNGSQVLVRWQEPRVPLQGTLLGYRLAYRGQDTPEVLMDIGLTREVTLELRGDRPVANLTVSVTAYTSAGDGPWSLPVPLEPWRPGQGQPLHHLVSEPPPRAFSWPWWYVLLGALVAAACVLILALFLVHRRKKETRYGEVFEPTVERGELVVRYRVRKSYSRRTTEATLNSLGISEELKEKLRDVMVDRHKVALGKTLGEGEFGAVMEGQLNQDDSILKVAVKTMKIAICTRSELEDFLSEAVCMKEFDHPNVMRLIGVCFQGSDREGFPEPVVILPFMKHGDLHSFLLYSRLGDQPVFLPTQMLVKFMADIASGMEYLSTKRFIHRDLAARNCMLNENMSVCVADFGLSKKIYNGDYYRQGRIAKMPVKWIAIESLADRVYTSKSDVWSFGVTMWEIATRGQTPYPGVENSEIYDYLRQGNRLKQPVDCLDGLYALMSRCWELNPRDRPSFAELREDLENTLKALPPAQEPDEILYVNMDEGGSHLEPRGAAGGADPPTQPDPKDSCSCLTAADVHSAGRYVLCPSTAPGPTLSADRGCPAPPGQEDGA
The series is described as follows: Inhibition of AXL in mouse BaF3/TEL-AXL cells assessed as reduction in phosphorylation of AKT at 1 to 15 nM after 2 hrs by Western blotting analysis. It is filed as cell-based. Particulars: dose 1-15 nM.

The nature of series [6]: Cmax in ICR mouse at 3 mg/kg, po measured upto 24 hrs by LC-MS analysis. Particulars: in vivo. The arrangement: route oral, dose 3 mg/kg, time <=24. Type of series: ADME, organism-based.
Series [7] deals with Tyrosine-protein kinase BTK (Homo sapiens, UniProt Q06187). The series is described as follows: Inhibition of full length recombinant human BTK using KVEKIGEGTYGVVYK as substrate incubated for 40 mins in presence of [gamma-33P]-ATP by scintillation counting based radiometry assay.
The target of series [8] is Receptor-type tyrosine-protein kinase FLT3 (Homo sapiens, UniProt P36888). The series is described as follows: Inhibition of recombinant human FLT3 (564 to end residues) using EAIYAAPFAKKK as substrate incubated for 40 mins in presence of [gamma-33ATP] by scintillation counting based radiometry assay.
The test system of series [9] is BaF3. The series is described as follows: Antitumor activity against mouse BaF3/TEL-AXL cells xenografted in BALB/c nude mouse assessed as tumor growth inhibition at 25 mg/kg, po administered once daily for 14 days by caliper method. It is filed as functional. Particulars: 336 h, time 14 day, read-out: TGI.
In series [10] the test system is HCC4006. The series is described as follows: Antiproliferative activity against human HCC4006 cells incubated for 72 hrs by SRB or CCK8 assay. Type of series: functional, cell-based. The conditions noted are these: HCC4006, 72 h.
Series [11] addresses Ephrin type-A receptor 2 (Homo sapiens, UniProt P29317). The series is described as follows: Inhibition of recombinant human EphA2 (596 to 900 residues) using poly(Glu, Tyr) 4:1 as substrate incubated for 40 mins in presence of [gamma-33ATP] by scintillation counting based radiometry assay.
Series [12] has as its target CDK12/Cyclin K (Homo sapiens, UniProt Q9NYV4). The series is described as follows: Inhibition of recombinant full length human CDK12/CyclinK using RSRSRSRSRSRSR as substrate incubated for 40 mins in presence of [gamma-33ATP] by scintillation counting based radiometry assay. Type of series: protein-complex assay.
Series [13] concerns the target Mitogen-activated protein kinase kinase kinase 20 (Homo sapiens, UniProt Q9NYL2). The series is described as follows: Inhibition of recombinant full-length human ZAK using MBP as substrate incubated for 40 mins in presence of [gamma33P]ATP by scintillation counting based radiometry assay.
For series [14], the target named is Proto-oncogene tyrosine-protein kinase Src (Homo sapiens, UniProt P12931). The series is described as follows: Inhibition of recombinant human C-Src using KVEKIGEGTYGVVYK as substrate incubated 40 mins in presence of [gamma-33ATP] by scintillation counting based radiometry assay.
Series [15] deals with MKN-45. The series is described as follows: Antiproliferative activity against human MKN-45 cells incubated for 72 hrs by SRB or CCK8 assay. Type of series: functional, cell-based. Particulars: MKN-45, 72 h.
A short description of series [16]: Tmax in Sprague-Dawley rat at 3 mg/kg, po measured upto 24 hrs by LC-MS analysis. Type of series: ADME, organism-based. Particulars: in vivo.
The target of series [17] is T1, Hepatocyte growth factor receptor. The series is described as follows: Inhibition of MET signaling in human EBC1 cells assessed as reduction in phosphorylation of ERK after 2 hrs by Western blotting analysis. It is filed as cell-based. Particulars: EBC-1, dose 10-100 nM.
Series [18] has as its system NCI-H1975. The series is described as follows: Antiproliferative activity against human NCI-H1975 cells incubated for 72 hrs by SRB or CCK8 assay. The conditions noted are these: NCI-H1975, 72 h. Type of series: functional, cell-based.
Series [19] addresses Epidermal growth factor receptor (Homo sapiens, UniProt P00533). The series is described as follows: Inhibition of recombinant human EGFR (696 to end residues) using poly(Glu, Tyr) 4:1 as substrate incubated for 40 mins in presence of [gamma-33ATP] by scintillation counting based radiometry assay.
The subject of series [20] is BaF3. The series is described as follows: Antitumor activity against mouse BaF3/TEL-AXL cells xenografted in BALB/c nude mouse assessed as tumor growth inhibition at 5 mg/kg, po administered once daily for 14 days by caliper method. It is filed as functional. The conditions noted are these: 336 h, time 14 day, read-out: TGI.
Series [21] concerns the target T1, Hepatocyte growth factor receptor. The series is described as follows: Inhibition of recombinant human MET (974 to end residues) using KKKGQEEEYVFIE as substrate incubated for 40 mins in presence of [gamma-33ATP by scintillation counting based radiometry assay.
Series [22] has as its target Tyrosine-protein kinase SYK (Homo sapiens, UniProt P43405). The series is described as follows: Inhibition of recombinant human full length SYK using poly(Glu, Tyr) 4:1 as substrate incubated for 40 mins in presence of [gamma33P]ATP by scintillation counting based radiometry assay.

T1 sequence (P08581 whole entry, the tested form may be a part): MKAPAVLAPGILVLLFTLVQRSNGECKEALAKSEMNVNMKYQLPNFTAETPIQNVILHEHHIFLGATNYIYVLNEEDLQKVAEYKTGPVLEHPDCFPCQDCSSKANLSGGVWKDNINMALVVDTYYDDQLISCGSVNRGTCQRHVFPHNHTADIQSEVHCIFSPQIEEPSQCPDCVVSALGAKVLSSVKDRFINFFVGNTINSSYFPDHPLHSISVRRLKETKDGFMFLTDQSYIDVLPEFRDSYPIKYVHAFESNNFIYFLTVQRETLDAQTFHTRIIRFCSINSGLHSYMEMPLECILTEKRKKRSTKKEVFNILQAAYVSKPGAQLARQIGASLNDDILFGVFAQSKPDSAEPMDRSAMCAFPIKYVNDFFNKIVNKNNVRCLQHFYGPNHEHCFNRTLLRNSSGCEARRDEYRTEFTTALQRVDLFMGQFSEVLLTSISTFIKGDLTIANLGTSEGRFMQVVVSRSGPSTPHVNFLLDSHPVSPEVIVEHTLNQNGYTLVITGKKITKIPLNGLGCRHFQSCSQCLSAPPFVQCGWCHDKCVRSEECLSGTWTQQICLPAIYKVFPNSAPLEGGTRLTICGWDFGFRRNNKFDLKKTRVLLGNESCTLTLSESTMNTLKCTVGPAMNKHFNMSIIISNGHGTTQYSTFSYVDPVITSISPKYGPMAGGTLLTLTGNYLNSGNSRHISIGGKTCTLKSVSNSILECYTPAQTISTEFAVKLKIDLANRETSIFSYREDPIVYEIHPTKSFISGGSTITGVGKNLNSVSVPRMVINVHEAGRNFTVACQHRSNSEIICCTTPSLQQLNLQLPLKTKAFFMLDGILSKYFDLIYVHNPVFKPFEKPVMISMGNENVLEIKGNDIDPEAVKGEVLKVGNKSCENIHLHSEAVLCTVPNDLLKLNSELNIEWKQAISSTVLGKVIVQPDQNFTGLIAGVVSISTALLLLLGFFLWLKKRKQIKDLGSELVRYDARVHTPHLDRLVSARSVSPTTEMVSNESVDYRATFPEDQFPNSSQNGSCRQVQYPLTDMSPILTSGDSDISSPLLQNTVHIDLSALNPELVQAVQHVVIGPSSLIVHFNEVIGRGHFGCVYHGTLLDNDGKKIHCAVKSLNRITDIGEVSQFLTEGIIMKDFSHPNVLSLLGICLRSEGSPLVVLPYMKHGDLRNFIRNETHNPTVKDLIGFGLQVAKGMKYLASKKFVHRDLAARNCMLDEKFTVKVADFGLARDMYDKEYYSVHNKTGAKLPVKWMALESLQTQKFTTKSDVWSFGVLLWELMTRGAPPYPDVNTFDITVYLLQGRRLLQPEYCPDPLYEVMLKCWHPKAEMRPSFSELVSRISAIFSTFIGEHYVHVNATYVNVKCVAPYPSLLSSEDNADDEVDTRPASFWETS
CDK12/Cyclin K, sequence (O75909 whole entry): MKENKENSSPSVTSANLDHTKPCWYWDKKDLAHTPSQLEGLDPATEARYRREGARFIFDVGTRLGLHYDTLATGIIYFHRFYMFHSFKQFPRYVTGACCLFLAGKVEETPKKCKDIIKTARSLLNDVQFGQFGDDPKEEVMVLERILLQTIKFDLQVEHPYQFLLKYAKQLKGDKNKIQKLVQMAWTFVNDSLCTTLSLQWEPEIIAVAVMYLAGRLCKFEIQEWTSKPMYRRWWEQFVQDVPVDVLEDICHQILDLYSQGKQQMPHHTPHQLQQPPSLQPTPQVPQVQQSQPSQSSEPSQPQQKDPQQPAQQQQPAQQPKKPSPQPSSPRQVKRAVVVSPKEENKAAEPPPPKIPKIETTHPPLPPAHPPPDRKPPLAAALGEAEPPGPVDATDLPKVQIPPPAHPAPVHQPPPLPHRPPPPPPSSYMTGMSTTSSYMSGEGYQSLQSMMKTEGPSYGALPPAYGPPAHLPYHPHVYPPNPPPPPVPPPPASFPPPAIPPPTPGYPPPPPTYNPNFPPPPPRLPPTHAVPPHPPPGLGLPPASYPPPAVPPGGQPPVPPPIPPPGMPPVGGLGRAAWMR
CDK12/Cyclin K, sequence (Q9NYV4 whole entry): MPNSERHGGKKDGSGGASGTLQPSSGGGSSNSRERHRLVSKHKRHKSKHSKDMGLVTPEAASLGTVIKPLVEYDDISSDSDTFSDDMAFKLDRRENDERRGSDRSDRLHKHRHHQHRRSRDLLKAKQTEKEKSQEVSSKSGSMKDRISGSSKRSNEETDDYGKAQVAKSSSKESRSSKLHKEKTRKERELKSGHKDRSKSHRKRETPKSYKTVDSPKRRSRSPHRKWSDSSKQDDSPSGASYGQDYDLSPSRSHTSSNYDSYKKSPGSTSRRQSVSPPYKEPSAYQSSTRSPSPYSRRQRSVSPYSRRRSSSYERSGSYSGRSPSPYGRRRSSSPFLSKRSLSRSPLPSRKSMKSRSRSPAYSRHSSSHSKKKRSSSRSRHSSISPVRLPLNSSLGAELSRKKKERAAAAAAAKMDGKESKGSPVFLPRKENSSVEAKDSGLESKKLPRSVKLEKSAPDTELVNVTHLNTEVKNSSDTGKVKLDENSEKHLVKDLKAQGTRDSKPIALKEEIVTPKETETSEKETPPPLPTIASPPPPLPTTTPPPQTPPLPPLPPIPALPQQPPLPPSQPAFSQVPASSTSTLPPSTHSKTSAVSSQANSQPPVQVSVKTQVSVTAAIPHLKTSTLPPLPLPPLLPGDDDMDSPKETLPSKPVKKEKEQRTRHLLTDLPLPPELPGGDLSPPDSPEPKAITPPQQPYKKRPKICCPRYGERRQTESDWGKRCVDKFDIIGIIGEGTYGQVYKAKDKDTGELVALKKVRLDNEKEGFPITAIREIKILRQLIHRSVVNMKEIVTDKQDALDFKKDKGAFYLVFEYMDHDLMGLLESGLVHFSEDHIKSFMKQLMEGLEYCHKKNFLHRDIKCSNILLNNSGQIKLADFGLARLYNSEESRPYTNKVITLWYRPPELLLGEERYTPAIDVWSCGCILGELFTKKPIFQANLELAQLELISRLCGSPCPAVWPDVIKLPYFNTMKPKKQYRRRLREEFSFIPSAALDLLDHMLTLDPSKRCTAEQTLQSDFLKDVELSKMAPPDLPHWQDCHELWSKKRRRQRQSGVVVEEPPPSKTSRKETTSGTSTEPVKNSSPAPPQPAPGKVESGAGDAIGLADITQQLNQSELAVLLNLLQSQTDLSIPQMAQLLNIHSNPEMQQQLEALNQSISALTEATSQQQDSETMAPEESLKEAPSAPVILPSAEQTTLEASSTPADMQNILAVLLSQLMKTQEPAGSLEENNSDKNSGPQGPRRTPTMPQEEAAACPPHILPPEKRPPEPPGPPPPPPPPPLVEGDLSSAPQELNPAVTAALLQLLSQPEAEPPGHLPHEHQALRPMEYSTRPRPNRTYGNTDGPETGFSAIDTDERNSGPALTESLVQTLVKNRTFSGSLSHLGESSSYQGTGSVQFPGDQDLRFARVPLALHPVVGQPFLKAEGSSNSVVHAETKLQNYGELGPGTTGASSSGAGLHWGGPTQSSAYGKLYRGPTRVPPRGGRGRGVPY
Epidermal growth factor receptor, sequence (P00533 whole entry): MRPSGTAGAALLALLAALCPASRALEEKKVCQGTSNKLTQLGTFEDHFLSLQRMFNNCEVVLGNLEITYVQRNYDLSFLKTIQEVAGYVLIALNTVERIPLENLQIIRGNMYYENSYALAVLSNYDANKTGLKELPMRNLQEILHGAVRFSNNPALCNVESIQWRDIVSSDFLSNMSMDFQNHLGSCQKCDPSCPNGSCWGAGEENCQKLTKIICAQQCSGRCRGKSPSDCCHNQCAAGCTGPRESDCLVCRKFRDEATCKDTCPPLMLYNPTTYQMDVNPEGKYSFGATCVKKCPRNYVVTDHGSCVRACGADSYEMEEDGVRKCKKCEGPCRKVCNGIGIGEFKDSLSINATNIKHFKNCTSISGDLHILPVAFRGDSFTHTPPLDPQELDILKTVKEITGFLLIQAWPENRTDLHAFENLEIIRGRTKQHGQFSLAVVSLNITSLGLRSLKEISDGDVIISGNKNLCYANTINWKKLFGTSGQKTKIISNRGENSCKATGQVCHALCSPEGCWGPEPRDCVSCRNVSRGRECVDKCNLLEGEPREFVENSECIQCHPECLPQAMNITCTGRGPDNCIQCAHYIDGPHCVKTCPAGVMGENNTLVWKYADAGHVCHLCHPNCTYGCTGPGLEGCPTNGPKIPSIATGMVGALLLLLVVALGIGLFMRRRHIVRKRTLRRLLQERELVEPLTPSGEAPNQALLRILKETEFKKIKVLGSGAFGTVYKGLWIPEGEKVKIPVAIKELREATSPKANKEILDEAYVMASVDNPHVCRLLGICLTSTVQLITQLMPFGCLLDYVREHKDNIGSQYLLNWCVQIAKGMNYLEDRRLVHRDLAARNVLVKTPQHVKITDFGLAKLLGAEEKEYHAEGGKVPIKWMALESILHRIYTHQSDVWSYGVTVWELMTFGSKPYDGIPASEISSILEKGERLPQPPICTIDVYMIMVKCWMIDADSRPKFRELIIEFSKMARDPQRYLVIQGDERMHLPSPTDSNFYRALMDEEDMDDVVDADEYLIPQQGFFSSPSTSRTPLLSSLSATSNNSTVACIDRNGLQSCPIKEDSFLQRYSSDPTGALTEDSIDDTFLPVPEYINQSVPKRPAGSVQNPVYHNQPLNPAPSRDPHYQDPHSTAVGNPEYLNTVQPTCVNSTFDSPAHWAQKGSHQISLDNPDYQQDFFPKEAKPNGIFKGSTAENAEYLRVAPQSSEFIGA

As to `CC(C)n1cc(C(=O)Nc2ccc(Oc3ccnc(NC(=O)C4CC4)c3)c(F)c2)c(=O)n(-c2ccc(F)cc2)c1=O`, the IC50 in series [1] is > 10 µM; in [3], > 1 µM; in series [4], > 1 µM; in [7] it was > 1 µM; in series [8] it was > 1 µM; in series [10] it was > 10 µM. Also, the IC50 was > 0.1 µM in [11]; > 1 µM in [12]; > 0.1 µM in series [13]; > 1 µM in [14]; 0.107 µM in series [15]; > 10 µM in series [18]. The results for the IC50 in [19], in series [21] and in [22] were > 1 µM, 0.0008 µM and > 0.1 µM, respectively. In addition, the inhibition result in series [2] and in [17] was “Dose-Dependent Effect” in each case. For the same compound, the inhibition result in series [5] was “Active”. For the same compound, in series [6], the highest level (Cmax) was 2.99 µg/mL. Further, in [9], the inhibition in vivo at 25 mg/kg came to 106%. Also, the Tmax in series [16] is 1.17 h. In [20], the inhibition in vivo at 5 mg/kg was determined as 106%.
